Measurements from PubChem BioAssay (NCI).
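Interpolation was linear, between the two tested concentrations surrounding the appropriate level; five concentrations were tested over 48 hours in 96-well plates. Abbreviation: GI50, concentration required for 50% inhibition of growth. TGI denotes the concentration required for complete inhibition of growth.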

How the values were obtained:
Experiment in all cases: NCI anticancer screen, dose series, 48 h
HL-60(TB) leukemia = system: HL-60(TB) leukemia
HS 578T breast = system: HS 578T breast
LOX IMVI melanoma = system: LOX IMVI melanoma
MDA-MB-231 breast = system: MDA-MB-231 breast
OVCAR-3 ovarian = system: OVCAR-3 ovarian
SF-295 CNS = system: SF-295 CNS
SK-MEL-28 melanoma = system: SK-MEL-28 melanoma
SNB-75 CNS = system: SNB-75 CNS
U251 CNS = system: U251 CNS
CAKI-1 renal = system: CAKI-1 renal

With `Cc1ccc(S(=O)(=O)NCCCSCCN)cc1` the TGI (HL-60(TB) leukemia) was > 100 µM, the TGI (HS 578T breast) was > 100 µM and the TGI (LOX IMVI melanoma) was > 100 µM. For the same compound, the TGI (MDA-MB-231 breast) was > 100 µM, the TGI (OVCAR-3 ovarian) was > 100 µM and the TGI (SF-295 CNS) was > 100 µM. For the same compound, the TGI (SK-MEL-28 melanoma) was > 100 µM, the TGI (SNB-75 CNS) was > 100 µM and the TGI (U251 CNS) was > 100 µM.
`O=C(Nc1ccc(C(F)(F)F)cc1[N+](=O)[O-])C(=O)Nn1c(=S)[nH]c2ccccc2c1=O` was tested, and the TGI (CAKI-1 renal) was > 100 µM, the TGI (HL-60(TB) leukemia) was > 100 µM and the TGI (LOX IMVI melanoma) was > 100 µM. The TGI (SF-295 CNS) was > 100 µM, the TGI (SK-MEL-28 melanoma) was > 100 µM and the TGI (SNB-75 CNS) was > 100 µM. The TGI (U251 CNS) was > 100 µM.
With `CC(C)N(CCNc1nc(C(Cl)(Cl)Cl)nc2cc(Cl)ccc12)C(C)C` the GI50 (CAKI-1 renal) was 1.6 µM, the TGI (CAKI-1 renal) was 3.17 µM and the GI50 (HL-60(TB) leukemia) was 1.52 µM. It also gave a TGI (HL-60(TB) leukemia) of 3.6 µM, a GI50 (HS 578T breast) of 1.56 µM and a TGI (HS 578T breast) of 3.99 µM. For the same compound, the GI50 (MDA-MB-231 breast) was 1.1 µM, the TGI (MDA-MB-231 breast) was 2.46 µM and the GI50 (OVCAR-3 ovarian) was 1.68 µM. It also gave a TGI (OVCAR-3 ovarian) of 3.66 µM, a GI50 (SF-295 CNS) of 1.73 µM and a TGI (SF-295 CNS) of 3.66 µM. For the same compound, the GI50 (SK-MEL-28 melanoma) was 1.8 µM, the TGI (SK-MEL-28 melanoma) was 3.38 µM and the GI50 (SNB-75 CNS) was 1.84 µM. The TGI (SNB-75 CNS) was 3.84 µM, the GI50 (U251 CNS) was 1.21 µM and the TGI (U251 CNS) was 2.53 µM.
In the case of `OCC1NC(CO)C(O)C1O` (configuration not stated), the TGI (CAKI-1 renal) is reported as > 100 µM, the TGI (HL-60(TB) leukemia) is reported as > 100 µM and the TGI (HS 578T breast) is reported as > 100 µM. The TGI (LOX IMVI melanoma) was > 100 µM, the TGI (MDA-MB-231 breast) was > 100 µM and the TGI (OVCAR-3 ovarian) was > 100 µM. The TGI (SF-295 CNS) was > 100 µM, the TGI (SK-MEL-28 melanoma) was > 100 µM and the TGI (SNB-75 CNS) was > 100 µM. For the same compound, the TGI (U251 CNS) was > 100 µM.
In the case of `O=S1(=O)C[C@H](NCc2ccccc2)[C@H](NCc2ccccc2)C1`, the TGI (CAKI-1 renal) is reported as > 100 µM, the TGI (HS 578T breast) is reported as > 100 µM and the TGI (LOX IMVI melanoma) is reported as > 100 µM. For the same compound, the TGI (MDA-MB-231 breast) was > 100 µM, the TGI (OVCAR-3 ovarian) was > 100 µM and the TGI (SF-295 CNS) was > 100 µM. The TGI (SK-MEL-28 melanoma) was > 100 µM, the TGI (SNB-75 CNS) was > 100 µM and the TGI (U251 CNS) was > 100 µM.
For `COc1ccc(CCn2ccc(C)n2)c(OC)c1`, the TGI (CAKI-1 renal) was > 100 µM, the TGI (HS 578T breast) was > 100 µM and the TGI (LOX IMVI melanoma) was > 100 µM. For the same compound, the TGI (MDA-MB-231 breast) was > 100 µM, the TGI (OVCAR-3 ovarian) was > 100 µM and the TGI (SF-295 CNS) was > 100 µM. For the same compound, the TGI (SK-MEL-28 melanoma) was > 100 µM, the TGI (SNB-75 CNS) was > 100 µM and the TGI (U251 CNS) was > 100 µM.
In the case of `CC=C/C=C/[C@@H]1O[C@](O)([C@H](CC)C(=O)NC/C=C/C=C(\C)[C@@H](OC)[C@@H](C)[C@@H]2O[C@H](/C=C/C=C/C=C(\C)C(=O)c3c(O)cc[nH]c3=O)[C@H](O)[C@@H]2O)[C@H](O)[C@H](O)C1(C)C`, the TGI (HL-60(TB) leukemia) is reported as > 100 µM, the TGI (HS 578T breast) is reported as > 100 µM and the TGI (OVCAR-3 ovarian) is reported as > 100 µM. For the same compound, the TGI (SF-295 CNS) was > 100 µM, the TGI (SK-MEL-28 melanoma) was > 100 µM and the TGI (SNB-75 CNS) was > 100 µM. The TGI (U251 CNS) was > 100 µM.
`CC(=O)OC/C=C\Cn1ncc(=O)[nH]c1=O` was tested, and the TGI (HL-60(TB) leukemia) was 30.1 µM, the TGI (HS 578T breast) was > 100 µM and the TGI (LOX IMVI melanoma) was 13.3 µM. The TGI (MDA-MB-231 breast) was 68 µM, the TGI (OVCAR-3 ovarian) was 69.3 µM and the TGI (SK-MEL-28 melanoma) was 50.2 µM. The TGI (SNB-75 CNS) was 33.9 µM and the TGI (U251 CNS) was 28.2 µM.
Work on `Fc1ccc(C2CC(c3cccc(Nc4ccncc4)c3)=NN2c2ccccc2)cc1` (configuration not stated) yielded a GI50 (CAKI-1 renal) of 1.6 µM, a TGI (CAKI-1 renal) of 3.02 µM and a GI50 (HL-60(TB) leukemia) of 2.08 µM. For the same compound, the TGI (HL-60(TB) leukemia) was 4.49 µM, the GI50 (HS 578T breast) was 1.81 µM and the TGI (HS 578T breast) was 3.8 µM. The GI50 (LOX IMVI melanoma) was 1.66 µM, the TGI (LOX IMVI melanoma) was 3.02 µM and the GI50 (MDA-MB-231 breast) was 1.57 µM. It also gave a TGI (MDA-MB-231 breast) of 2.95 µM, a GI50 (OVCAR-3 ovarian) of 1.75 µM and a TGI (OVCAR-3 ovarian) of 3.24 µM. The GI50 (SF-295 CNS) was 1.74 µM, the TGI (SF-295 CNS) was 3.16 µM and the GI50 (SK-MEL-28 melanoma) was 1.76 µM. For the same compound, the TGI (SK-MEL-28 melanoma) was 3.35 µM, the GI50 (SNB-75 CNS) was 1.29 µM and the TGI (SNB-75 CNS) was 2.87 µM. The GI50 (U251 CNS) was 1.84 µM and the TGI (U251 CNS) was 3.64 µM.
For `CCOP(=O)(OCC)C(Cc1c[nH]c2ccccc12)C(=O)O` (configuration not stated), the TGI (CAKI-1 renal) was > 100 µM, the TGI (HL-60(TB) leukemia) was > 100 µM and the TGI (HS 578T breast) was > 100 µM. The TGI (LOX IMVI melanoma) was > 100 µM, the TGI (MDA-MB-231 breast) was > 100 µM and the TGI (OVCAR-3 ovarian) was > 100 µM. For the same compound, the TGI (SF-295 CNS) was > 100 µM, the TGI (SK-MEL-28 melanoma) was > 100 µM and the TGI (SNB-75 CNS) was > 100 µM. The TGI (U251 CNS) was > 100 µM.
